In ChEMBL document CHEMBL4507273 (2021):

Legend:
[1] = biological target: 5-hydroxytryptamine receptor 1B (Homo sapiens, UniProt P28222); assay: GPCRScan assay: inhibition of 5-HT1B; design: radioligand conc. used [nm] 0.6 – 1.5, parental cells stable HEK
[2] = test system: Tyrosine-protein kinase ABL1 (Homo sapiens), P00519 [H396P]; conditions: Compound concentration 1000.0 nM
[3] = biological target: ALK tyrosine kinase receptor (Homo sapiens) (UniProt Q9UM73); conditions: Compound concentration 1000.0 nM
[4] = biological target: Aurora kinase A (Homo sapiens) (UniProt O14965); conditions: Compound concentration 1000.0 nM
[5] = biological target: Calcium/calmodulin-dependent protein kinase type II subunit alpha (Homo sapiens) (UniProt Q9UQM7); conditions: Compound concentration 1000.0 nM
[6] = biological target: Calcium/calmodulin-dependent protein kinase type II subunit beta (Homo sapiens) (UniProt Q13554); conditions: Compound concentration 1000.0 nM
[7] = biological target: Cyclin-dependent kinase 4 (Homo sapiens) (UniProt P11802); conditions: Compound concentration 1000.0 nM
[8] = biological target: Casein kinase I isoform gamma-1 (Homo sapiens) (UniProt Q9HCP0); conditions: Compound concentration 1000.0 nM
[9] = test system: Epidermal growth factor receptor (Homo sapiens), P00533 [L861Q]; conditions: Compound concentration 1000.0 nM
[10] = biological target: Ephrin type-A receptor 5 (Homo sapiens) (UniProt P54756); conditions: Compound concentration 1000.0 nM
[11] = biological target: Tyrosine-protein kinase Fes/Fps (Homo sapiens) (UniProt P07332); conditions: Compound concentration 1000.0 nM
[12] = biological target: Fibroblast growth factor receptor 4 (Homo sapiens) (UniProt P22455); conditions: Compound concentration 1000.0 nM
[13] = test system: Receptor-type tyrosine-protein kinase FLT3 (Homo sapiens), P36888 [K663Q]; conditions: Compound concentration 1000.0 nM
[14] = test system: Receptor-type tyrosine-protein kinase FLT3 (Homo sapiens), P36888 [R834Q]; conditions: Compound concentration 1000.0 nM
[15] = biological target: Receptor-type tyrosine-protein kinase FLT3 (Homo sapiens) (UniProt P36888); conditions: Compound concentration 1000.0 nM
[16] = biological target: G protein-coupled receptor kinase 4 (Homo sapiens) (UniProt P32298); conditions: Compound concentration 1000.0 nM
G protein-coupled receptor kinase 4 (Homo sapiens), sequence (P32298 whole entry, looked up): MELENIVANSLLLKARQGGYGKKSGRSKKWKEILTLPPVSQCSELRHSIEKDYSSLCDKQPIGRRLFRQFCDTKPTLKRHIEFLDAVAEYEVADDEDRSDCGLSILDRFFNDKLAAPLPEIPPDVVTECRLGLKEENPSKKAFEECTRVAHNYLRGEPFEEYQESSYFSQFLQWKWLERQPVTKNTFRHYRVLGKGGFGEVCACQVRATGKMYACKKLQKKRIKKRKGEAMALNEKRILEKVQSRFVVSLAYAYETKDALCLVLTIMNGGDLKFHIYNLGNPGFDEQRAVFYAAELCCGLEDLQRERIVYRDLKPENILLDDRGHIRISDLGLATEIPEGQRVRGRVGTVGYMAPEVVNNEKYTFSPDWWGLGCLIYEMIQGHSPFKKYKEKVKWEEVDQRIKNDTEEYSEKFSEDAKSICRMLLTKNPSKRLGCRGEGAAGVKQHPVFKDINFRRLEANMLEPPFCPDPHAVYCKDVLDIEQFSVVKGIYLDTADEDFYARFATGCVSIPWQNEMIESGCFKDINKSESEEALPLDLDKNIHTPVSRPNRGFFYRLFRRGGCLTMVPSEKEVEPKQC

[17] = biological target: Homeodomain-interacting protein kinase 4 (Homo sapiens) (UniProt Q8NE63); conditions: Compound concentration 1000.0 nM
[18] = biological target: Hormonally up-regulated neu tumor-associated kinase (Homo sapiens) (UniProt P57058); conditions: Compound concentration 1000.0 nM
[19] = biological target: Insulin receptor-related protein (Homo sapiens) (UniProt P14616); conditions: Compound concentration 1000.0 nM
[20] = biological target: Interleukin-1 receptor-associated kinase 3 (Homo sapiens) (UniProt Q9Y616); conditions: Compound concentration 1000.0 nM
[21] = biological target: Dual specificity mitogen-activated protein kinase kinase 6 (Homo sapiens) (UniProt P52564); conditions: Compound concentration 1000.0 nM
Dual specificity mitogen-activated protein kinase kinase 6 (Homo sapiens), sequence (P52564 whole entry): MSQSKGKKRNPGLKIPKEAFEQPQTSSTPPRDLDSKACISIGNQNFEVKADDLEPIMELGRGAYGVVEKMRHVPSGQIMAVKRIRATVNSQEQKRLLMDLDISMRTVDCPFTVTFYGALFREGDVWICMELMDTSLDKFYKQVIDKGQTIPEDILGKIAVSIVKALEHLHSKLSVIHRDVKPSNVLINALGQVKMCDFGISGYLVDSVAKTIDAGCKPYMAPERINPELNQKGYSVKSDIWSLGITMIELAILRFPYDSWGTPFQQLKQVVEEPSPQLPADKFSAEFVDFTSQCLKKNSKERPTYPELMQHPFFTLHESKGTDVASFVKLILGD

[22] = biological target: Serine/threonine-protein kinase MRCK alpha (Homo sapiens) (UniProt Q5VT25); conditions: Compound concentration 1000.0 nM
[23] = biological target: Macrophage-stimulating protein receptor (Homo sapiens) (UniProt Q04912); conditions: Compound concentration 1000.0 nM
[24] = biological target: Myosin-IIIa (Homo sapiens) (UniProt Q8NEV4); conditions: Compound concentration 1000.0 nM
[25] = biological target: Serine/threonine-protein kinase 38 (Homo sapiens) (UniProt Q15208); conditions: Compound concentration 1000.0 nM
Serine/threonine-protein kinase 38 (Homo sapiens), sequence (Q15208 2-465 limits assumed): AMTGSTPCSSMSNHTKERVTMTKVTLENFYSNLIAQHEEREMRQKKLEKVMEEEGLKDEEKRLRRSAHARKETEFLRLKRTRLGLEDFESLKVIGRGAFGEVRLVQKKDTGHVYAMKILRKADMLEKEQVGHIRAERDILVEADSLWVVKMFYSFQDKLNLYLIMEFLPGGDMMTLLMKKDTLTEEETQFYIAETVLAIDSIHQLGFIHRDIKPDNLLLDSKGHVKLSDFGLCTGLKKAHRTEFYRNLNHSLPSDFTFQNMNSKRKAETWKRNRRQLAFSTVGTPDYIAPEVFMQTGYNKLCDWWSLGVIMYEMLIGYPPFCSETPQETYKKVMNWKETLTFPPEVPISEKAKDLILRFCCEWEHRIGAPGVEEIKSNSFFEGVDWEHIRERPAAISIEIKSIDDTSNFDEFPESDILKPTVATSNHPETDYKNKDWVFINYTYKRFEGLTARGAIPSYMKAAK

[26] = biological target: Phosphatidylinositol 4,5-bisphosphate 3-kinase catalytic subunit beta isoform (Homo sapiens) (UniProt P42338); conditions: Compound concentration 1000.0 nM
[27] = biological target: Phosphatidylinositol 5-phosphate 4-kinase type-2 gamma (Homo sapiens) (UniProt Q8TBX8); conditions: Compound concentration 1000.0 nM
Phosphatidylinositol 5-phosphate 4-kinase type-2 gamma (Homo sapiens), sequence (Q8TBX8 whole entry): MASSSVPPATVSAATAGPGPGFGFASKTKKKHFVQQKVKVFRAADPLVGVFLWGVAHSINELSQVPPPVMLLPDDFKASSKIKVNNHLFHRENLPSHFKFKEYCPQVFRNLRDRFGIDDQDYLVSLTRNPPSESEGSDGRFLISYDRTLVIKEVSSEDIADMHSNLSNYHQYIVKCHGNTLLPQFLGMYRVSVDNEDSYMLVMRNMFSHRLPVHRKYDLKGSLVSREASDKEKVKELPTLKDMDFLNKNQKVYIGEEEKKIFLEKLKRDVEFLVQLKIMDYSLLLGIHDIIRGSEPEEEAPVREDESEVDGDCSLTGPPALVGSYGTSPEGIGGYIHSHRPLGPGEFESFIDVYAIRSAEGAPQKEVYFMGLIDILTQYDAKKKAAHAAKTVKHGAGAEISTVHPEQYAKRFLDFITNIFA

[28] = biological target: Membrane-associated tyrosine- and threonine-specific cdc2-inhibitory kinase (Homo sapiens) (UniProt Q99640); conditions: Compound concentration 1000.0 nM
[29] = biological target: cGMP-dependent protein kinase 1 (Homo sapiens) (UniProt Q13976); conditions: Compound concentration 1000.0 nM
[30] = biological target: cAMP-dependent protein kinase catalytic subunit PRKX (Homo sapiens) (UniProt P51817); conditions: Compound concentration 1000.0 nM
[31] = biological target: Receptor-interacting serine/threonine-protein kinase 1 (Homo sapiens) (UniProt Q13546); conditions: Compound concentration 1000.0 nM
[32] = biological target: Receptor-interacting serine/threonine-protein kinase 2 (Homo sapiens) (UniProt O43353); conditions: Compound concentration 1000.0 nM
[33] = biological target: Serine/threonine-protein kinase SBK1 (Homo sapiens) (UniProt Q52WX2); conditions: Compound concentration 1000.0 nM
Serine/threonine-protein kinase SBK1 (Homo sapiens), sequence (Q52WX2 whole entry): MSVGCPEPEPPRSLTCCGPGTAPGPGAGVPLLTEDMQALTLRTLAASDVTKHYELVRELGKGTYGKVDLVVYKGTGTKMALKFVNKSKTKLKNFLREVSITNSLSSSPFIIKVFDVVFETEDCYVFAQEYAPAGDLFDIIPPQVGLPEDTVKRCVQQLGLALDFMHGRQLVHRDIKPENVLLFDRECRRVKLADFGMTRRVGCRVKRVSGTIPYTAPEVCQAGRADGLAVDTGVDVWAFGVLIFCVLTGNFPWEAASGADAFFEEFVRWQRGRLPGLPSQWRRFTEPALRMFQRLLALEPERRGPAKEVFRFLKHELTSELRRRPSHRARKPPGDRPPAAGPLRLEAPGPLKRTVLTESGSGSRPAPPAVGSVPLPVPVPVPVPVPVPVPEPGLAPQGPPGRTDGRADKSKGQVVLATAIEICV

[34] = biological target: Uncharacterized serine/threonine-protein kinase SBK3 (Homo sapiens) (UniProt P0C264); conditions: Compound concentration 1000.0 nM
Uncharacterized serine/threonine-protein kinase SBK3 (Homo sapiens), sequence (P0C264 whole entry): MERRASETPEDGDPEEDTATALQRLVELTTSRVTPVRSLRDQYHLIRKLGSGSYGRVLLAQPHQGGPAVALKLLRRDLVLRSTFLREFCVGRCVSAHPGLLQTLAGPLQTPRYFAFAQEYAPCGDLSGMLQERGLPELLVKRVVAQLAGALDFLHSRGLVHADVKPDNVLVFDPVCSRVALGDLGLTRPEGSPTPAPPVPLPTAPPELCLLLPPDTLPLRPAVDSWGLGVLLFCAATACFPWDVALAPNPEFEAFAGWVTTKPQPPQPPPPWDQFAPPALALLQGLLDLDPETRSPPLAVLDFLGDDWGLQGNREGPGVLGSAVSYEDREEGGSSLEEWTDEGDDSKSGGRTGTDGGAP

[35] = biological target: Serine/threonine-protein kinase Sgk2 (Homo sapiens) (UniProt Q9HBY8); conditions: Compound concentration 1000.0 nM
[36] = biological target: Serine/threonine-protein kinase TAO1 (Homo sapiens) (UniProt Q7L7X3); conditions: Compound concentration 1000.0 nM
[37] = biological target: Dual specificity protein kinase TTK (Homo sapiens) (UniProt P33981); conditions: Compound concentration 1000.0 nM
[38] = biological target: Serine/threonine-protein kinase ULK3 (Homo sapiens) (UniProt Q6PHR2); conditions: Compound concentration 1000.0 nM
[39] = biological target: Mitogen-activated protein kinase kinase kinase 20 (Homo sapiens) (UniProt Q9NYL2); conditions: Compound concentration 1000.0 nM
Mitogen-activated protein kinase kinase kinase 20 (Homo sapiens), sequence (Q9NYL2 2-800 limits assumed): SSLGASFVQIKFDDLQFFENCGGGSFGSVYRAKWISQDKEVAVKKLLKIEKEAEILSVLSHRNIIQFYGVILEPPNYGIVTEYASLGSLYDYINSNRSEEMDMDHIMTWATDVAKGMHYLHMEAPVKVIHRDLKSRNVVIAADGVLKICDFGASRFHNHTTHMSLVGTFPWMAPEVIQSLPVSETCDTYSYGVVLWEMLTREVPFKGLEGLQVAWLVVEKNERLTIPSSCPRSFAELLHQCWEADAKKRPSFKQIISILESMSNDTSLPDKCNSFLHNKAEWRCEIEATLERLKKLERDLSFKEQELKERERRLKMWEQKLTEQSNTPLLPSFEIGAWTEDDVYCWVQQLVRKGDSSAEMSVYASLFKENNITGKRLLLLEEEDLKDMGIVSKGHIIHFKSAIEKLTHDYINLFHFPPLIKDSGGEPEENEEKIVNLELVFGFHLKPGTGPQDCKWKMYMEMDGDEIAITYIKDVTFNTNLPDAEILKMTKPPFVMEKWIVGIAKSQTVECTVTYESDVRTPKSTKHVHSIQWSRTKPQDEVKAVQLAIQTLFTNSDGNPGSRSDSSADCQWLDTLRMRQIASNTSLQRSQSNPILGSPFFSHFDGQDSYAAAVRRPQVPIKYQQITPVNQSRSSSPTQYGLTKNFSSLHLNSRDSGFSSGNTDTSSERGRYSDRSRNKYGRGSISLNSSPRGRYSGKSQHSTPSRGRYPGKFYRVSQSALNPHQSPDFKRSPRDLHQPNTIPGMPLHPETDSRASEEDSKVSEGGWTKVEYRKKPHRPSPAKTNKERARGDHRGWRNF

[40] = biological target: Tyrosine-protein kinase ZAP-70 (Homo sapiens) (UniProt P43403); conditions: Compound concentration 1000.0 nM
Tyrosine-protein kinase ZAP-70 (Homo sapiens), sequence (P43403 whole entry): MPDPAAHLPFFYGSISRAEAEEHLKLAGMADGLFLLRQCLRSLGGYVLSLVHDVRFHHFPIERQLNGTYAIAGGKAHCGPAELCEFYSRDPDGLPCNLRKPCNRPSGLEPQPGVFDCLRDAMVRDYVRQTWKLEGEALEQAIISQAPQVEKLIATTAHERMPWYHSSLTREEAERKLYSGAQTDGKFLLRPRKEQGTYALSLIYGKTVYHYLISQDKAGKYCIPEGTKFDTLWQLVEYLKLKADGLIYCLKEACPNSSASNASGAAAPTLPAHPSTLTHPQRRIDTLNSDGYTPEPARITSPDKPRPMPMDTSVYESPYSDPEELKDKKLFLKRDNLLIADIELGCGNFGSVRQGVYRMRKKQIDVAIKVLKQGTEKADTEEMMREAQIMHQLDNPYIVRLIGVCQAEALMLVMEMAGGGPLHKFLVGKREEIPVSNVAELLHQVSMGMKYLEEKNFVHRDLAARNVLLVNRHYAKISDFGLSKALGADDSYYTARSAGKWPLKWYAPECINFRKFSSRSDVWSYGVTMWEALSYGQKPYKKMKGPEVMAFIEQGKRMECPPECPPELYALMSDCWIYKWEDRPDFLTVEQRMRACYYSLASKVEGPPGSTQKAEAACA

[41] = biological target: 5-hydroxytryptamine receptor 2B (Homo sapiens, UniProt P41595); conditions: Compound concentration 10.0 uM
5-hydroxytryptamine receptor 2B, sequence (P41595 whole entry): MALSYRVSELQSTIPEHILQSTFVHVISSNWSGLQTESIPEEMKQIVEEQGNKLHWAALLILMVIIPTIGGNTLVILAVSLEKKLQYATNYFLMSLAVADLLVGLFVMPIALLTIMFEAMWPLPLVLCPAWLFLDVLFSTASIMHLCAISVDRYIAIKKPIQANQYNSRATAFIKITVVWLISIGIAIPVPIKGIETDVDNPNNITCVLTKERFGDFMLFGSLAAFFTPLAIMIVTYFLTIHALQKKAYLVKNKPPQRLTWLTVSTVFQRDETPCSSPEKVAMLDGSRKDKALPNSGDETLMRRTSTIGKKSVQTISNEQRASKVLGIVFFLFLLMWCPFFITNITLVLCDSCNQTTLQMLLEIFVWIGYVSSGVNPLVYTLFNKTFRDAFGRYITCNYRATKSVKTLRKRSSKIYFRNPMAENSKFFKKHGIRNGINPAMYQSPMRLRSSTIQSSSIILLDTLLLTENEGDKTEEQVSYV

[42] = biological target: 5-hydroxytryptamine receptor 5A (Homo sapiens, UniProt P47898); conditions: Compound concentration 10.0 uM
[43] = biological target: D(1A) dopamine receptor (Homo sapiens, UniProt P21728); conditions: Compound concentration 10.0 uM
[44] = biological target: D(4) dopamine receptor (Homo sapiens) (UniProt P21917); conditions: Compound concentration 10.0 uM
[45] = biological target: Beta-3 adrenergic receptor (Homo sapiens) (UniProt P13945); conditions: Compound concentration 10.0 uM

5-hydroxytryptamine receptor 1B, sequence (P28222 whole entry): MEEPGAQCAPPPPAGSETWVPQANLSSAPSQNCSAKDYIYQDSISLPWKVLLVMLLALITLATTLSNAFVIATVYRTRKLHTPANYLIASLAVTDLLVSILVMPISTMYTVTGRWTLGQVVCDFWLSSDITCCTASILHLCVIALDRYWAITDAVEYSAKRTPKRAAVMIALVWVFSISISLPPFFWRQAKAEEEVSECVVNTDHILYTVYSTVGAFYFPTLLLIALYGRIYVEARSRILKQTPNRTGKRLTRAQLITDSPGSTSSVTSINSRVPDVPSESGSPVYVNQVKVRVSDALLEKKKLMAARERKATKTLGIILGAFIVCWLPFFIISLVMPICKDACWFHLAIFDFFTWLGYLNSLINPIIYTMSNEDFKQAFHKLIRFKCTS

Compound: CNCc1ccccc1-c1csc([C@@H](C)Nc2nc(C)nc3cc(OC)c(OC)cc23)c1 [BAY-293]
- Ki ([1]; read-out: Ki): 1410 nM
- Ki ([1]; read-out: pKi (converted)): 1350 nM
- residual activity [2]: 93%
- residual activity [3]: 79%
- residual activity [4]: 73%
- residual activity [5]: 99%
- residual activity [6]: 92%
- residual activity [7]: 100%
- residual activity [8]: 88%
- residual activity [9]: 97%
- residual activity [10]: 88%
- residual activity [11]: 100%
- residual activity [12]: 100%
- residual activity [13]: 77%
- residual activity [14]: 79%
- residual activity [15]: 88%
- residual activity [16]: 80%
- residual activity [17]: 86%
- residual activity [18]: 100%
- residual activity [19]: 95%
- residual activity [20]: 75%
- residual activity [21]: 86%
- residual activity [22]: 67%
- residual activity [23]: 100%
- residual activity [24]: 100%
- residual activity [25]: 60%
- residual activity [26]: 96%
- residual activity [27]: 92%
- residual activity [28]: 93%
- residual activity [29]: 100%
- residual activity [30]: 67%
- residual activity [31]: 97%
- residual activity [32]: 100%
- residual activity [33]: 100%
- residual activity [34]: 100%
- residual activity [35]: 95%
- residual activity [36]: 95%
- residual activity [37]: 97%
- residual activity [38]: 78%
- residual activity [39]: 75%
- residual activity [40]: 87%
- inhibition [41]: 86.9%
- inhibition [42]: 68.5%
- inhibition [43]: 82.7%
- inhibition [44]: 56.7%
- inhibition [45]: 20%

Compound: CNCc1ccccc1-c1csc([C@H](C)Nc2nc(C)nc3cc(OC)c(OC)cc23)c1 [BAY-294]
- Ki ([1]; read-out: Ki): 1760 nM
- residual activity [2]: 95%
- residual activity [3]: 73%
- residual activity [4]: 73%
- residual activity [5]: 100%
- residual activity [6]: 100%
- residual activity [7]: 100%
- residual activity [8]: 92%
- residual activity [9]: 97%
- residual activity [10]: 100%
- residual activity [11]: 100%
- residual activity [12]: 100%
- residual activity [13]: 93%
- residual activity [14]: 82%
- residual activity [15]: 93%
- residual activity [16]: 97%
- residual activity [17]: 91%
- residual activity [18]: 100%
- residual activity [19]: 93%
- residual activity [20]: 83%
- residual activity [21]: 100%
- residual activity [22]: 92%
- residual activity [23]: 100%
- residual activity [24]: 100%
- residual activity [25]: 87%
- residual activity [26]: 89%
- residual activity [27]: 100%
- residual activity [28]: 100%
- residual activity [29]: 100%
- residual activity [30]: 76%
- residual activity [31]: 100%
- residual activity [32]: 100%
- residual activity [33]: 100%
- residual activity [34]: 100%
- residual activity [35]: 100%
- residual activity [36]: 100%
- residual activity [37]: 100%
- residual activity [38]: 88%
- residual activity [39]: 100%
- residual activity [40]: 100%
- inhibition [41]: 97.3%
- inhibition [42]: 78.1%
- inhibition [43]: 89.2%
- inhibition [44]: 31%
- inhibition [45]: 38.2%
